Assay results taken from patent publication US8889878B2, “Haloalky-substituted amides as insecticides and acaricides” (Bayer CropScience AG, priority 2009, dated 2014).

How the values were obtained:
Boophilus microplus = Boophilus microplus test (BOOPMI injection), Example 11; type: in vivo; details: Rhipicephalus microplus, 168 h; application rate 20 μg/animal, injected into abdomen, after 7 days; read-out: efficacy in % (fertile eggs laid)
Procedure, shortened: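 Efficacy rated from fertile egg laying: 100% means none of the ticks laid fertile eggs, read after 7 days. Compound, dissolved and diluted in DMSO, was delivered by abdominal injection, and ticks were kept in dishes under climate control.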

[1] = test system: mustard beetle (Phaedon cochleariae); experiment: Phaedon test (PHAECO spray treatment), Example 16; type: in vivo; details: Phaedon cochleariae, foliar, china cabbage leaf discs sprayed, after the desired time, read-out: efficacy in %; for pest or weed control at 500 g/ha: application rate 500 g/ha; for pest or weed control at 100 g/ha: application rate 100 g/ha
Description: Phaedon Test (PHAECO Spray Treatment)
(§1) • Solvent: 78.0 parts by weight of acetone • 1.5 parts by weight of dimethylformamide • Emulsifier: 0.5 part by weight of alkylaryl polyglycol ether
To prepare an appropriate active ingredient formulation, 1 part by weight of active ingredient is mixed with the stated amounts of solvent and emulsifier, and the concentrate is diluted with emulsifier-containing water to the desired concentration. […]
After the desired time, the efficacy in % is determined. 100% means that all beetle larvae were killed; 0% means that no beetle larvae were killed.

[2] = test system: armyworm (Spodoptera frugiperda); experiment: Spodoptera frugiperda test (SPODFR spray treatment), Example 15; type: in vivo; details: Spodoptera frugiperda, foliar, 168 h, maize leaf discs sprayed, after 7 days, read-out: efficacy in %; for pest or weed control at 500 g/ha: application rate 500 g/ha; for pest or weed control at 100 g/ha: application rate 100 g/ha
Procedure, shortened: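 Caterpillars placed on dried, sprayed Zea mays leaf discs; formulation of acetone, dimethylformamide and emulsifier diluted with emulsifier-containing water to test concentration. Percent kill scored on day 7.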

[3] = logP by HPLC on reverse-phase column (EEC Directive 79/831 Annex V.A8); type: physicochemical; details: reverse-phase C18 HPLC column
Description: The logP values reported in the above Tables and Preparation Examples were determined according to EEC Directive 79/831 Annex V.A8 by HPLC (High Performance Liquid Chromatography) on a reverse-phase column (C18). Temperature 43° C.

[4] = test system: mustard beetle (Phaedon cochleariae); experiment: Phaedon test (PHAECO spray treatment), Example 7; type: in vivo; details: application rate 20 g/ha, china cabbage leaf discs sprayed, after 7 days
Procedure, shortened: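 Spray formulation (acetone/DMF with alkylaryl polyglycol ether, diluted in emulsifier-containing water) applied to Chinese cabbage leaf discs, which were dried and then stocked with mustard beetle larvae. Efficacy scored at 7 days as % larvae killed (100% all, 0% none).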

[5] = test system: red spider mite (Tetranychus urticae); experiment: Tetranychus test; OP-resistant (TETRUR spray treatment), Example 18; type: in vivo; details: Tetranychus urticae, foliar, 144 h, common bean leaf discs sprayed, after 6 days, read-out: efficacy in %; for pest or weed control at 500 g/ha: application rate 500 g/ha; for pest or weed control at 100 g/ha: application rate 100 g/ha
Description: Tetranychus Test; OP-Resistant (TETRUR Spray Treatment)
as §1
To prepare an appropriate active ingredient formulation, 1 part by weight of active ingredient is mixed with the stated amounts of solvent and emulsifier, and the concentrate is diluted with emulsifier-containing water to the desired concentration. Leaf discs from the common bean (Phaseolus vulgaris) infested by all stages of the red spider mite (Tetranychus urticae) are sprayed with an active ingredient formulation of the desired concentration.
After 6 days, the efficacy in % is determined. 100% means that all spider mites were killed; 0% means that no spider mites were killed.

[6] = test system: green peach aphid (Myzus persicae); experiment: Myzus test (MYZUPE spray treatment), Example 17; type: in vivo; details: application rate 100 g/ha, china cabbage leaf discs sprayed, after 6 days
Procedure, shortened: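 Efficacy recorded at 6 days as % kill, where 100% means every aphid dead and 0% none. Spray applied to Brassica pekinensis leaf discs bearing mixed-stage aphids; active ingredient dissolved in acetone with dimethylformamide and emulsifier, then diluted with emulsifier-containing water.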

[7] = pH 2.7, HPLC, C18 reverse phase, 43° C., acidic range pH 2.7, calibration with alkan-2-ones

Row | Compound | chromatographic logP [3, 7] | chromatographic logP ([3]; HPLC-MS) | pest or weed control at 0.02 mg (Boophilus microplus) [%] | pest or weed control at 500 g/ha [1] [%] | pest or weed control at 500 g/ha [2] [%] | efficacy in % [4] [%] | pest or weed control at 500 g/ha [5] [%] | pest or weed control at 100 g/ha [1] [%] | efficacy in % [6] [%] | pest or weed control at 100 g/ha [5] [%] | pest or weed control at 100 g/ha [2] [%]
1 | O=C(NC(c1cccc(C(F)(F)F)c1)C(F)(F)F)c1cc2cc(C(=O)NC3CC3)c(Cl)cc2[nH]1 (centres unmarked) [Ic-24, 6-Chloro-N^5-cyclopropyl-N^2-{2,2,2-trifluoro-1-[3-(trifluoromethyl)phenyl]ethyl}-1H-indole-2,5-dicarboxamide] | 3.08 |  | 100 | 100 | 100 | 100 | 100 |  |  |  | 
2 | O=C(/C=C/c1ccc(C(=O)NC2CSC2)c(C(F)(F)F)c1)NC(c1cccc(C(F)(F)F)c1)C(F)(F)F (centres unmarked) [Ia-130, 4-[(1E)-3-oxo-3-({2,2,2-trifluoro-1-[3-(trifluoromethyl)phenyl]ethyl}-amino)prop-1-en-1-yl]-N-(thietan-3-yl)-2-(trifluoromethyl)benzamide] |  | 3.62 | 100 |  |  |  |  | 100 | 100 | 80 | 
3 | C=CCNC(=O)c1cc2cc(C(=O)NC(c3cccc(C(F)(F)F)c3)C(F)(F)F)n(C)c2cc1Cl (centres unmarked) [Ic-32, N^5-Allyl-6-chloro-1-methyl-N^2-{2,2,2-trifluoro-1-[3-(trifluoromethyl)phenyl]ethyl}-1H-indole-2,5-dicarboxamide] | 3.68 |  |  | 100 | 100 |  | 100 |  |  |  | 
4 | CC(C)C(=O)NCc1ccc(/C=C/C(=O)NC(c2cccc(C(F)(F)F)c2)C(F)(F)F)cc1C(F)(F)F (centres unmarked) [Ia-266, (2E)-3-{4-[(Isobutyrylamino)methyl]-3-(trifluoromethyl)phenyl}-N-{2,2,2-trifluoro-1-[3-(trifluoromethyl)phenyl]ethyl}acrylamide] | 3.78 |  |  |  |  |  |  | 100 |  | 90 | 100
5 | O=C(/C=C/c1ccc(C(=O)NC2CC2)c(C(F)(F)F)c1)NC(c1cc(F)cc(C(F)(F)F)c1)C(F)(F)F (stereo not drawn) [Ia-229, N-[α,3-Bis(trifluoromethyl)-5-fluorobenzenemethane]-3-trifluoromethyl-4-(N-cyclopropylcarbamoyl)cinnamide] | 3.59 |  |  | 100 | 100 |  | 100 |  |  |  | 

Now from value to molecule, other results behind:

Row | chromatographic logP [3, 7] | chromatographic logP ([3]; HPLC-MS) | Compound | pest or weed control at 0.02 mg (Boophilus microplus) [%] | pest or weed control at 500 g/ha [1] [%] | pest or weed control at 500 g/ha [2] [%] | efficacy in % [4] [%] | pest or weed control at 500 g/ha [5] [%] | pest or weed control at 100 g/ha [1] [%] | efficacy in % [6] [%] | pest or weed control at 100 g/ha [5] [%] | pest or weed control at 100 g/ha [2] [%]
6 | 3 |  | CC(=O)NC1CCc2cc(/C=C/C(=O)NC(c3cccc(C(F)(F)F)c3)C(F)(F)F)ccc21 (centres unmarked) [Ie-1, (2E)-3-(1-Acetamido-2,3-dihydro-1H-inden-5-yl)-N-{2,2,2-trifluoro-1-[3-(trifluoromethyl)-phenyl]ethyl}acrylamide] |  |  |  |  |  | 100 |  | 90 | 100
7 | 3.06 |  | O=C(/C=C\c1ccc(C(=O)NC2CC2)c(Cl)c1)NC(c1cccc(C(F)(F)F)c1)C(F)(F)F (centres unmarked) [Ig-1, 2-Chloro-N-cyclopropyl-4-[(1Z)-3-oxo-3-({2,2,2-trifluoro-1-[3-(trifluoromethyl)phenyl]ethyl}-amino)prop-1-en-1-yl]benzamide] |  |  |  |  |  | 100 |  | 80 | 
8 | 3.27 |  | O=C(/C=C/c1cc(C(F)(F)F)c(C(=O)NC2CC2)cn1)NC(c1cccc(C(F)(F)F)c1)C(F)(F)F (centres unmarked) [If-2, N-Cyclopropyl-6-[(1E)-3-oxo-3-({2,2,2-trifluoro-1-[3-(trifluoromethyl)phenyl]ethyl}amino)-prop-1-en-1-yl]-4-(trifluoromethyl)nicotinamide] |  |  |  |  |  | 100 | 100 | 100 | 83
